Measured values as given in patent publication US20030190322A1, “Immunostimulating properties of a fragment of tgf-beta” (priority 2000, published 2003).
No end group written: not given here.

Assays:
parvovirus peptide [1] = assay: ELISA antibody titre to parvovirus peptide in rabbits immunised with Parv or Parv+TGF-29 (Example 1); type: in vivo; settings: subcutaneous, 3 immunisations at 2 week intervals, freunds incomplete adjuvant
Experimental: Both preparations were subcutaneously injected into 2 groups of rabbits. The con-tent of each injected dose of 0.2 mL were;
50 microgram parvovirus peptide was dissolved in 0.05 mL PBS and subsequently mixed with 0.05 mL PBS by stirring. The combined fractions were then mixed with 0.1 mL freunds incomplete adjuvant by stirring.
50 microgram parvovirus peptide was dissolved in 0.05 mL PBS and subsequently mixed with 100 microgram of a crude fraction comprising TGF-29 dissolved in 0.05 mL PBS, and then the combined fractions were mixed with 0.1 mL freunds incomplete adjuvant by stirring,
The rabbits were immunised by subcuteous injection according to normal standard immunisation procedures for antibody production in rabbits at a legal laboratory animal facility.
Before immunisation, a pre-immunisation serum sample (T0) of each rabbit were collected. Two weeks after the last of 3 immunisations (given at 2 week intervals) an immune serum sample (T1) was collected from each rabbit. […]
(§1) The serum samples were analysed on an ELISA plate according to standard laboratory operations. Coating the plate bottom with parvo virus peptide derivative overnight, washings, incubation with serial dilutions of all serum samples, washings, incubation with HRP-Goat anti Rabbit 1 g, washings, incubation with substrate, stop reaction with acid, and reading of the plate.

parvovirus peptide [2] = assay: ELISA antibody titre to parvovirus peptide in rabbits, TGF-29 dose experiment with Titermax adjuvant (Example 3); type: in vivo; settings: group with highest dose TGF-29 (20 ug) plus 100 μg parvovirus peptide and Titermax adjuvant (preparation Iris); one rabbit, bleeding T3, 6 weeks after first immunisation
Experimental: Both preparations were subcutaneously injected into 2 groups of rabbits. Each injected dose was 0.1 mL and the preparations for a resulting volume between 0.4 and 0.5 mL was made as follows:
Each injected dose of 0.1 mL therefore contains approximate 4 ug TGF-29 and 100 ug parvovirus peptide.
Into the same vial 154 microliter H2O was added and the combined fractions subsequently mixed by stirring a few seconds and then transferred in drops, while stirring, into a small 1.8 mL plast vial preloaded with 250 microliter Titermax adjuvant. The resulting volume of the water-in-oil emulsion volume was a little more than 0.4 mL. Each injected dose of 0.1 mL therefore contains approximate 20 μg TGF-29 and 100 μg parvovirus peptide.
The rabbits were then immunised according to the normal standard immunisation procedure for antibody production in rabbits at a legal laboratory animal facility.
Before immunisation, a pre-immunisation serum sample (To) of each rabbit was collected. […]
as §1, with “operations:” for “operations.”

Substance | antibody titre to the parvovirus peptide, immune serum samples compared with T0 sera (parvovirus peptide [1]) | titer to the parvovirus peptide compared with T0 serum (highest of all bleedings) (parvovirus peptide [2])
acetyl-CDGAVQPDGGQPAVRNER-amide (Ac-CDGAVQPDGGQPAVRNER-NH2) [Parv] | Non-detectable or less antibody titre to the parvovirus peptide than in the corresponding to sera | 
ALDAAYCFRNVQDNCCLRPLYIDFKRDLG (cysteine pairing not given here) [TGF-29] |  | more than three 5-fold serial antiserum dilutions better than the corresponding T0 serum
